We go through eight compounds from patent US20220089592A1, “IMIDAZO[1,2-A]PYRIDINYL DERIVATIVES AS IRAK4 INHIBITORS” (priority 2019, published 2022).

In assay [1] the target is T1, IRAK4 (Homo sapiens, UniProt Q9NWZ3).
T1 sequence (Q9NWZ3 1-460): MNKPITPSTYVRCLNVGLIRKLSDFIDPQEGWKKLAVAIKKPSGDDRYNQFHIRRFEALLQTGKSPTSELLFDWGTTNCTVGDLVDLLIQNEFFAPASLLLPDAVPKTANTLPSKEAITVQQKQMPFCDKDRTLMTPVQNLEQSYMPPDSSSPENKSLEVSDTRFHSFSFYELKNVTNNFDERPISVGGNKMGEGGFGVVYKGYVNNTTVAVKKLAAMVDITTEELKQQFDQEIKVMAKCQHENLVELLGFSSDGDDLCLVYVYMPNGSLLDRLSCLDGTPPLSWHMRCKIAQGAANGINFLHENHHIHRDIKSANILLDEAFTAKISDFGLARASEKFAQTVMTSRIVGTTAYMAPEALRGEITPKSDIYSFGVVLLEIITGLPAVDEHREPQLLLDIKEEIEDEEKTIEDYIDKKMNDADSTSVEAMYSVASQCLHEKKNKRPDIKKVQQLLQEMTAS
The assay can be described thus: 2-hour 10 μM ATP Biochemical Assay (MesoScale Detection format; IRAK4 phosphorylation of biotin labeled IRAK1 activation loop peptide). The conditions noted are these: IRAK4 MSD BIOCHEMICAL (10 μM ATP) IC50 (μM), 1 nM IRAK4, 2 hours. The method in brief: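 Electrochemiluminescent MSD readout: after streptavidin capture, phosphothreonine on the biotin-labelled IRAK1 activation-loop peptide detected by rabbit antibody and Sulfo-Tag secondary. Phosphorylation ran 2 h with 10 μM ATP before EDTA quench.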

Assay [2] has as its target T1, IRAK4. The assay can be described thus: 2-hour 1 mM ATP IRAK4 Biochemical assay (as above, but with 100 pM IRAK4 and 1 mM ATP). The settings on record: IRAK4 MSD BIOCHEMICAL (1 mM ATP) IC50 (μM), 100 pM IRAK4, 2 hours. The method in brief:
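MSD electrochemiluminescence read-out: biotinylated peptide product bound to streptavidin plates, probed with anti-P-Thr rabbit antibody and Sulfo-Tag goat anti-rabbit. Kinase reaction used 1 mM ATP and 100 pM IRAK4 over 2 hours before EDTA quench.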

`COc1cc(NC(=O)c2cccc(C(F)F)n2)cn2cc(C3CCOC(C)(C)C3)nc12` (stereo not shown) [Example 510, 6-(difluoromethyl)-N-(2-(2,2-dimethyltetrahydro-2H-pyran-4-yl)-8-methoxyimidazo[1,2-a]pyridin-6-yl)picolinamide 2,2,2-trifluoroacetate]: the IC50 was 0.001 µM in assay [1] and 0.002 µM in assay [2].

Consider `CCOc1cc2nc(C3CCOCC3)cn2cc1NC(=O)c1cccc(OCCOC)n1` [Example 516, N-(7-ethoxy-2-(tetrahydro-2H-pyran-4-yl)imidazo[1,2-a]pyridin-6-yl)-6-(2-methoxyethoxy)picolinamide], for which the IC50 was determined as 0.007 µM in assay [1] and 0.034 µM in assay [2].

Take `CCOc1cc2nc(C34CC(C)(C3)C4)cn2cc1NC(=O)c1cccc(C(F)(F)F)n1` [Example 520, N-(7-ethoxy-2-(3-methylbicyclo[1.1.1]pentan-1-yl)imidazo[1,2-a]pyridin-6-yl)-6-(trifluoromethyl)picolinamide 2,2,2-trifluoroacetate]: the values for the IC50 in assay [1] and in assay [2] were 0.001 µM and 0.005 µM, respectively.

On to `CCOc1cc2nc(C34CC(C#N)(C3)C4)cn2cc1NC(=O)c1cccc(C(F)(F)F)n1` [Example 521, N-(2-(3-cyanobicyclo[1.1.1]pentan-1-yl)-7-ethoxyimidazo[1,2-a]pyridin-6-yl)-6-(trifluoromethyl)picolinamide 2,2,2-trifluoroacetate], for which the IC50 in assay [1] and in assay [2] was 0.001 µM throughout.

As to `CCOc1cc2nc(C34CC(C(F)F)(C3)C4)cn2cc1NC(=O)c1cccc(C(F)(F)F)n1` [Example 522, N-(2-(3-(difluoromethyl)bicyclo[1.1.1]pentan-1-yl)-7-ethoxyimidazo[1,2-a]pyridin-6-yl)-6-(trifluoromethyl)picolinamide 2,2,2-trifluoroacetate], the figures for the IC50 in assay [1] and in assay [2] were 0.001 µM and 0.002 µM, respectively.

As for `CCOc1cc2nc(C34CC(COC)(C3)C4)cn2cc1NC(=O)c1cccc(C(F)(F)F)n1` [Example 523, N-(7-ethoxy-2-(3-(methoxymethyl)bicyclo[1.1.1]pentan-1-yl)imidazo[1,2-a]pyridin-6-yl)-6-(trifluoromethyl)picolinamide], the IC50 in assay [1] and in assay [2] was 0.001 µM in each case.

`CCOc1cc2nc(CCCOC)cn2cc1NC(=O)c1cccc(OC)n1` [Example 524, N-(7-ethoxy-2-(3-methoxypropyl)imidazo[1,2-a]pyridin-6-yl)-6-methoxypicolinamide]: the IC50 stood at 0.004 µM in assay [1] and 0.015 µM in assay [2].

`CC(C)Oc1c(NC(=O)c2cnn3cccnc23)cn2cc(C34COC(C)(C3)C4)nc2c1F` [Example 577, N-(8-fluoro-7-isopropoxy-2-(1-methyl-2-oxabicyclo[2.1.1]hexan-4-yl)imidazo[1,2-a]pyridin-6-yl)pyrazolo[1,5-a]pyrimidine-3-carboxamide]: the IC50 in assay [1] amounted to 0.003 µM; in assay [2], 0.001 µM.
